Test results reported in patent publication US20180087079A1, “METHODS OF USING CELL-CYCLE INHIBITORS TO MODULATE ONE OR MORE PROPERTIES OF A CELL CULTURE” (AMGEN INC., priority 2013, published 2018).

Columns and labels:
[1] = tested on: transfected CHO cells expressing recombinant human monoclonal antibody (cell line 1); assay: 24-deep well culture, cell line 1: VCD, viability, titer, qP; type: cell-based, Chinese hamster; conditions: for Titer / VCD / Viability / qP: Cell Line 1
Method: Transfected CHO cells expressing a recombinant human monoclonal antibody (mAb) are cultured in 24-deep well plates with seeding density at 1×10^7/mL for five days. At certain time periods, samples of the cultures are taken and evaluated for viable cell density (VCD; expressed in 10^6 cells/mL); percent viability (as determined by trypan blue exclusion); titer of recombinant protein (expressed in grams of protein per liter of culture, or g/L, as determined by Protein A affinity HPLC); qP, or specific productivity (expressed in picograms of recombinant protein per cell per day, or pg/c/d), the presence or absence of high molecular weight substances (usually an indicator of protein aggregation; expressed as % of the total protein); and the relative percentage of Mannose 5, a major intermediate glyco-form that attaches to N297 of the mAb. N-linked glycosylation has an impact on the tertiary structure of the antibody and may affect Fc mediated antibody effector functions. The majority of the human Fc glycans are complex biantennary structures with galactose as the prevalent terminal sugar. Immature glyco-forms, such as high-mannose glycol-forms (Man5-9), are of concern due to potential higher plasma clearance rate (as compared to the clearance rate of complex glycan linked mAbs).
Compounds are further evaluated essentially as described in Example 2 herein. Briefly, transfected CHO cells expressing recombinant human monoclonal antibody (mAb; two different cell lines expressing two different mAb, referred to as cell line 1 and cell line 2) are cultured in 24-deep well plates in the presence or absence of the compounds. At specified time points, samples of the cultures are taken and evaluated for viable cell density (VCD; expressed in 10^6 cells/mL); percent viability (as determined by any method known in the art); titer of recombinant protein (expressed in grams of protein per liter of culture, or g/L, as determined by Protein A affinity HPLC); qP, or specific productivity (expressed in picograms of recombinant protein per cell per day, or pg/c/d). Additional parameters measure include the presence or absence of high molecular weight substances (usually an indicator of protein aggregation; expressed as % of the total protein); and the relative percentage of Mannose 5. For comparison purposes, Compounds A and B, which had been previously tested, were tested again.

[2] = molecular target: T1, CDK4/Cyclin D1 (Homo sapiens, UniProt P11802); assay: CDK4 filtration kinase assay; type: biochemical; conditions: CDK4/Cyclin D1, Rb fragment substrate, [33P]-ATP
T1 construct: purchased Cell Signaling Technology
T1 sequence (P11802 whole entry, species assumed, the tested form may be a part): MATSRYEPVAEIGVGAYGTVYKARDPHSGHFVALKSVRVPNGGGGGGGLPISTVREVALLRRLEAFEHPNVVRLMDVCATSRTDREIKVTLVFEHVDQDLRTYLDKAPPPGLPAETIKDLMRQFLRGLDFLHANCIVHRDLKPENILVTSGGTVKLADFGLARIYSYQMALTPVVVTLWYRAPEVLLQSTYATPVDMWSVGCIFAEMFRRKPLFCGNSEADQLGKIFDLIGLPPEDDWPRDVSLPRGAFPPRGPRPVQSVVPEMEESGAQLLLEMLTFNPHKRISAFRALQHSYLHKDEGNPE
T1 sequence (P24385 whole entry partner, species assumed, the tested form may be a part): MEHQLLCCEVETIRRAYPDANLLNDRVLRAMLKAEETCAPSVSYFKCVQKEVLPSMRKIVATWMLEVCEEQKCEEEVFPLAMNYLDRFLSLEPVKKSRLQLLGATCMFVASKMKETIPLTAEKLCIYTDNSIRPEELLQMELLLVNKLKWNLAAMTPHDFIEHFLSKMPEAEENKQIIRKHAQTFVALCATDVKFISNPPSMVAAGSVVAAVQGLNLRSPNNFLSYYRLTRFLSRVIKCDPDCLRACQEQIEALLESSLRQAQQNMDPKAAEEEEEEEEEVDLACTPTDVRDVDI
Method: The CDK4 inhibitory activity of the cell cycle inhibitors was determined with a filtration kinase assay. The compounds, kinase and substrate diluted in the kinase buffer (20 mM Tris, pH7.4, 50 mM NaCl, 1 mM DTT, 0.1% BSA) were sequentially added to a 96-well Multiscreen HTS filtration plate (Millipore). The final 100 μL reaction mixture in each well contained 0.3 μg of CDK4/Cyclin D1 (Cell Signaling Technology), 1 μg of Rb fragment (aa773-928, Millipore) for the CDK4 assay and 1 μCi of [^33P]-ATP. The mixture was incubated at room temperature for 1 hour. The proteins in the reaction were then precipitated and washed with cold TCA solution using an aspiration/filtration vacuum system. The plates were dried at room temperature, and the retained radioactivity was measured by scintillation counting. IC50 values of the compounds in the above assays were determined by non-linear regression analysis using Prism (GraphPad Software).

[3] = tested on: Colo205; assay: [14C]-thymidine incorporation cell proliferation inhibition assay; type: cell-based; conditions: Homo sapiens, COLO 205, 72 hour incubation
Method: The cell proliferation inhibition potency of the cell cycle inhibitors was determined by using a [^14C]-thymidine incorporation assay. Exponentially growing cells (Colo205) were seeded in a 96-well Cytostar T plate (GE Healthcare Biosciences) at a density of 5×10^3 cells/well and incubated overnight. Serially diluted compounds and 0.1 μCi of [^14C]-thymidine (GE Healthcare Biosciences) were added to each well on the following day. After 72 hour incubation, isotope incorporation was determined with a β plate counter (Wallac). IC50 values of the compounds in the above assays were determined by non-linear regression analysis using Prism (GraphPad Software).

Compound: CN(C)C1CCN(c2ccc(Nc3ncc4c5ccncc5n(C5CCCC5)c4n3)nn2)CC1 [Compound C, 9-cyclopentyl-N-(6-(4-(dimethylamino)piperidin-1-yl)pyridazin-3-yl)-9H-pyrido[4′,3′:4,5]pyrrolo[2,3-d]pyrimidin-2-amine]
- Titer ([1]; 10 microM, D 1): 0.48 g/L
- VCD ([1]; 10 microM, D 1): 10.72 e6/mL
- Viability ([1]; 10 microM, D 1): 94.37%
- qP ([1]; 10 microM, D 1): 44.45 pg/c/d
- Titer ([1]; 10 microM, D 2): 0.70 g/L
- VCD ([1]; 10 microM, D 2): 8.77 e6/mL
- Viability ([1]; 10 microM, D 2): 82.97%
- qP ([1]; 10 microM, D 2): 79.79 pg/c/d
- Titer ([1]; 10 microM, D 3): 0.94 g/L
- VCD ([1]; 10 microM, D 3): 10.83 e6/mL
- Viability ([1]; 10 microM, D 3): 84.46%
- qP ([1]; 10 microM, D 3): 86.83 pg/c/d
- Titer ([1]; 10 microM, D 4): 1.21 g/L
- VCD ([1]; 10 microM, D 4): 12.18 e6/mL
- Viability ([1]; 10 microM, D 4): 78.70%
- qP ([1]; 10 microM, D 4): 99.64 pg/c/d
- Titer ([1]; 20 microM, D 1): 0.48 g/L
- VCD ([1]; 20 microM, D 1): 11.00 e6/mL
- Viability ([1]; 20 microM, D 1): 94.55%
- qP ([1]; 20 microM, D 1): 43.31 pg/c/d
- Titer ([1]; 20 microM, D 2): 0.67 g/L
- VCD ([1]; 20 microM, D 2): 8.28 e6/mL
- Viability ([1]; 20 microM, D 2): 80.00%
- qP ([1]; 20 microM, D 2): 80.51 pg/c/d
- Titer ([1]; 20 microM, D 3): 0.85 g/L
- VCD ([1]; 20 microM, D 3): 9.22 e6/mL
- Viability ([1]; 20 microM, D 3): 78.87%
- qP ([1]; 20 microM, D 3): 91.80 pg/c/d
- Titer ([1]; 20 microM, D 4): 1.10 g/L
- VCD ([1]; 20 microM, D 4): 10.18 e6/mL
- Viability ([1]; 20 microM, D 4): 74.13%
- qP ([1]; 20 microM, D 4): 108.01 pg/c/d
- effect on viability ([1]; summary of Table 2): greater (but still modest) decreases in viability
- growth arrest ([1]; summary of Table 2): more sustained growth arrest
- IC50 [2]: 3.17 nM
- IC50 [3]: 17.1 nM
